Test results: US20250152651A1, “COMPOSITIONS AND METHODS FOR EXTRACTING COMPOUNDS” (Unicity Properties, Inc., priority 2023, published 2025)
Several values for one entry are separate records, joined by “and”; a condition that tells them apart may be missing. Equal entries are not always repeated.

Target: α-glucosidase
Experiment: α-glucosidase inhibitory activity assay
Format: biochemical
Conditions: alpha-glucosidase 1 U/ml, P-NPG substrate, 37° C., pH 6.8
Protocol: An assay to measure α-glucosidase inhibitory activity of extract and fractions was carried out according to the standard method with minor modification. In a 96-well plate, reaction mixture containing 50 μl phosphate buffer (100 mM, pH=6. 8), 10 μl alpha-glucosidase (1 U/ml), and 20 μl of varying concentrations of extract and fractions (0.1, 0.2, 0.3, 0.4, and 0.5 mg/ml) was preincubated at 37° C. for 15 min. Then, 20 μl P-NPG (5 mM) were added as a substrate and incubated further at 37° C. for 20 min. The reaction was stopped by adding 50 μl Na2 CO3 (0.1 M). The absorbance of the released p-nitrophenol was measured at 405 nm using Multiplate Reader. Acarbose at various concentrations (0.1-0.5 mg/ml) was included as a standard. Without test substance was set up in parallel as a control and each experiment was performed in triplicates. The results were expressed as percentage inhibition, which was calculated using the formula,
Inhibitory activity (%)=(1−As/Ac)×100 • where, As is the absorbance in the presence of test substance and Ac is the absorbance of control.

O=C(O[C@@H]1Cc2c(O)cc(O)cc2O[C@@H]1c1cc(O)c(O)c(O)c1)c1cc(O)c(O)c(O)c1 [EGCG, epigallocatechin gallate] was tested, and the “IC50 values of α-glucosidase” value was 138 µg/mL and 138.6 µg/mL.
